ChEMBL document CHEMBL5380833 (J Med Chem, 2023)
Activity calls are given as the source filed them. The rule behind the calls is not given here.

Experiments:
Interleukin-2 [1] = molecular target: T1, Interleukin-2 (Homo sapiens, UniProt P60568); test: Inhibition of IL-2 in human Jurkat T cells pretreated with compound for 16 hrs followed by anti-CD3 stimulation by ELISA analysis; type: cell-based
[2] = molecular target: T2, Tyrosine-protein kinase ITK/TSK (Homo sapiens, UniProt Q08881); test: Inhibition of ITK (unknown origin)
T2 sequence (Q08881 whole entry): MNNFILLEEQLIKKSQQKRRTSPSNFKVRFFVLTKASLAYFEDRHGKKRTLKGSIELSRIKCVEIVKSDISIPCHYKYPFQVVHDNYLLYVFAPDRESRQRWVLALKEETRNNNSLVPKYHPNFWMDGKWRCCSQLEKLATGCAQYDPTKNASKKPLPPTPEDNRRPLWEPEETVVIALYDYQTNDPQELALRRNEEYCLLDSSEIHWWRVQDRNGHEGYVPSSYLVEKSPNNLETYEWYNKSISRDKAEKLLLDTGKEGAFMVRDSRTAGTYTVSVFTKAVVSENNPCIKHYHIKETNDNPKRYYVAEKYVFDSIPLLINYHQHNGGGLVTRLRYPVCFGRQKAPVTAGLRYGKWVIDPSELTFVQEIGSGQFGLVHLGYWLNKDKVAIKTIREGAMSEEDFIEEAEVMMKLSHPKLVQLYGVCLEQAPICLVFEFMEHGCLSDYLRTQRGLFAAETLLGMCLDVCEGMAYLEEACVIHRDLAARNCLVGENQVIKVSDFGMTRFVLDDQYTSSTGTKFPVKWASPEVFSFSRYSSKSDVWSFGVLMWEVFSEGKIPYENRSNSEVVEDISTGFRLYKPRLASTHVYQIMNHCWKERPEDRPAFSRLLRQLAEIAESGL

[3] = molecular target: T3, Protein cereblon/Tyrosine-protein kinase ITK/TSK (Homo sapiens, UniProt Q08881+Q96SW2); test: PROTAC activity at CRBN/ITK in human Jurkat cells assessed as induction of ITK degradation by Western blot analysis; type: cell-based; conditions: read-out: EC50
Target sequence in this assay (Q96SW2 whole entry, one chain of several): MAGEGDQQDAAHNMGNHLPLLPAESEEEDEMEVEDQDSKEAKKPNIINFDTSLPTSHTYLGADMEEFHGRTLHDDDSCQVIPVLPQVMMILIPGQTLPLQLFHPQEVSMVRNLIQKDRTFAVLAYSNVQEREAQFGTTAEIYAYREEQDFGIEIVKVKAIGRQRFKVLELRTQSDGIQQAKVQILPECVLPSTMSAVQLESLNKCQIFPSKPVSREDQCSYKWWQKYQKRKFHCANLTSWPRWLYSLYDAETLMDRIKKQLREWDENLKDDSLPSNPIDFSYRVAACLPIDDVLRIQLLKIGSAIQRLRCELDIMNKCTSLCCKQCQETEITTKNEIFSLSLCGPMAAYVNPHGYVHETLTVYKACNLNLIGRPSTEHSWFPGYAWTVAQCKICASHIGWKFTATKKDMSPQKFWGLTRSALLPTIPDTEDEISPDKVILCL

[4] = molecular target: T3, Protein cereblon/Tyrosine-protein kinase ITK/TSK; test: PROTAC activity at CRBN/ITK in human Jurkat cells assessed as maximum degradation at 0.01 to 10 uM by Western blot analysis relative to control; type: cell-based; conditions: dose 0.01-10 µM
Target sequence in this assay (Q96SW2 whole entry, looked up, one chain of several): as the sequence (Q96SW2 whole entry, one chain of several) above

Interleukin-2 [5] = molecular target: T1, Interleukin-2; test: Inhibition of IL-2 in human Jurkat cells pretreated with compound for 4 hrs followed by anti-CD3/CD28 stimulation by ELISA analysis; type: cell-based
[6] = AUC (0 to t) in Balb/c mouse at 5 mg/kg, iv measured upto 24 hrs by LC-MS/MS analysis; type: ADME, organism-based; parameters: dose 5 mg/kg, time < 24 hrs, route iv; conditions: in vivo
[7] = AUC (0 to t) in Balb/c mouse at 10 mg/kg, ip measured upto 24 hrs by LC-MS/MS analysis; type: ADME, organism-based; parameters: time < 24 hrs, dose 10 mg/kg, route ip; conditions: in vivo
[8] = AUC (0 to infinity) in Balb/c mouse at 5 mg/kg, iv measured upto 24 hrs by LC-MS/MS analysis; type: ADME, organism-based; parameters: time < 24 hrs, dose 5 mg/kg, route iv; conditions: in vivo
[9] = AUC (0 to infinity) in Balb/c mouse at 10 mg/kg, ip measured upto 24 hrs by LC-MS/MS analysis; type: ADME, organism-based; parameters: dose 10 mg/kg, time < 24 hrs, route ip; conditions: in vivo
[10] = Half life in Balb/c mouse at 5 mg/kg, iv measured upto 24 hrs by LC-MS/MS analysis; type: ADME, organism-based; conditions: in vivo
[11] = Half life in Balb/c mouse at 10 mg/kg, ip measured upto 24 hrs by LC-MS/MS analysis; type: ADME, organism-based; conditions: in vivo
[12] = Volume of distribution at steady state in Balb/c mouse at 5 mg/kg, iv measured upto 24 hrs by LC-MS/MS analysis; type: ADME, organism-based; conditions: in vivo, read-out: Vdss
[13] = Volume of distribution at steady state in Balb/c mouse at 10 mg/kg, ip measured upto 24 hrs by LC-MS/MS analysis; type: ADME, organism-based; conditions: in vivo
[14] = Clearance in Balb/c mouse at 5 mg/kg, iv measured upto 24 hrs by LC-MS/MS analysis; type: ADME, organism-based; conditions: in vivo
[15] = Clearance in Balb/c mouse at 10 mg/kg, ip measured upto 24 hrs by LC-MS/MS analysis; type: ADME, organism-based; conditions: in vivo
[16] = Cmax in Balb/c mouse at 5 mg/kg, iv measured upto 24 hrs by LC-MS/MS analysis; type: ADME, organism-based; parameters: time < 24 hrs, dose 5 mg/kg, route iv; conditions: in vivo
[17] = Cmax in Balb/c mouse at 10 mg/kg, ip measured upto 24 hrs by LC-MS/MS analysis; type: ADME, organism-based; parameters: dose 10 mg/kg, time < 24 hrs, route ip; conditions: in vivo
[18] = MRT last in Balb/c mouse at 5 mg/kg, iv measured upto 24 hrs by LC-MS/MS analysis; type: ADME, organism-based; conditions: Balb/c, in vivo
[19] = MRT last in Balb/c mouse at 10 mg/kg, ip measured upto 24 hrs by LC-MS/MS analysis; type: ADME, organism-based; conditions: in vivo
[20] = Bioavailability in Balb/c mouse at 10 mg/kg, ip measured upto 24 hrs by LC-MS/MS analysis; type: ADME, organism-based; conditions: in vivo
[21] = Toxicity in Balb/c mouse assessed as drug tolerance at 5 mg/kg, iv measured upto 24 hrs by LC-MS/MS analysis; type: organism-based; conditions: in vivo
[22] = Toxicity in Balb/c mouse assessed as drug tolerance at 10 mg/kg, ip measured upto 24 hrs by LC-MS/MS analysis; type: organism-based; conditions: in vivo
[23] = Toxicity in Balb/c mouse assessed as side effects at 5 mg/kg, iv measured upto 24 hrs by LC-MS/MS analysis; type: organism-based; conditions: in vivo
[24] = Toxicity in Balb/c mouse assessed as side effects at 10 mg/kg, ip measured upto 24 hrs by LC-MS/MS analysis; type: organism-based; conditions: in vivo
[25] = molecular target: T3, Protein cereblon/Tyrosine-protein kinase ITK/TSK; test: PROTAC activity at CRBN/ITK in human Jurkat cells assessed as downregulation of ITK protein by measuring fold change at 100 nM measured after 8 hrs; type: cell-based
Target sequence in this assay (Q96SW2 whole entry, looked up, one chain of several): as the sequence (Q96SW2 whole entry, one chain of several) above

Jurkat [26] = test: Effect on IKZF1 expression in human Jurkat cells at 100 nM measured after 8 hrs by proteomics analysis; type: functional, cell-based
Jurkat [27] = test: Effect on IKZF3 expression in human Jurkat cells at 100 nM measured after 8 hrs by proteomics analysis; type: functional, cell-based
Jurkat [28] = test: Effect on CK1alpha expression in human Jurkat cells at 100 nM measured after 8 hrs by proteomics analysis; type: functional, cell-based
Jurkat [29] = test: Effect on GSPT1 expression in human Jurkat cells at 100 nM measured after 8 hrs by proteomics analysis; type: functional, cell-based
[30] = molecular target: T4, Protein cereblon/Tyrosine-protein kinase ITK/TSK (Mus musculus) (UniProt Q8C7D2+Q03526); test: In vivo PROTAC activity at CRBN/ITK xenografted in Balb/c mouse peripheral blood assessed as prolongation of ITK degradation at 20 mg/kg, ip measured for 2 to 16 hrs by Western blot analysis; type: functional, organism-based; conditions: time 2-16 hrs
[31] = molecular target: T4, Protein cereblon/Tyrosine-protein kinase ITK/TSK (Mus musculus); test: In vivo PROTAC activity at CRBN/ITK xenografted in Balb/c mouse spleen assessed as prolongation of ITK degradation at 20 mg/kg, ip measured for 2 to 16 hrs by Western blot analysis; type: functional, organism-based; conditions: time 2-16 hrs
[32] = molecular target: T4, Protein cereblon/Tyrosine-protein kinase ITK/TSK (Mus musculus); test: In vivo PROTAC activity at CRBN/ITK xenografted in Balb/c mouse assessed as reduction in cytokine IL-2 production at 25 mg/kg, ip preincubated for 6 hrs followed by abti-CD3 stimulation and measured after 1.5 hrs by ELISA method relative to control; type: functional, organism-based; parameters: scale not given: the % may be the effect or the level left; conditions: time 7.5 hrs
[33] = molecular target: T4, Protein cereblon/Tyrosine-protein kinase ITK/TSK (Mus musculus); test: (§1) PROTAC activity at CRBN/ITK in Balc/c mouse Primary splenic cell assessed as ITK degradation by immunoblotting analysis; type: cell-based; conditions: dose 0.32-5000 nM
[34] = molecular target: T5, Protein cereblon/Tyrosine-protein kinase ITK/TSK (Mus musculus, UniProt Q8C7D2+Q03526); test: as §1; type: cell-based
T5 sequence (Q8C7D2 whole entry): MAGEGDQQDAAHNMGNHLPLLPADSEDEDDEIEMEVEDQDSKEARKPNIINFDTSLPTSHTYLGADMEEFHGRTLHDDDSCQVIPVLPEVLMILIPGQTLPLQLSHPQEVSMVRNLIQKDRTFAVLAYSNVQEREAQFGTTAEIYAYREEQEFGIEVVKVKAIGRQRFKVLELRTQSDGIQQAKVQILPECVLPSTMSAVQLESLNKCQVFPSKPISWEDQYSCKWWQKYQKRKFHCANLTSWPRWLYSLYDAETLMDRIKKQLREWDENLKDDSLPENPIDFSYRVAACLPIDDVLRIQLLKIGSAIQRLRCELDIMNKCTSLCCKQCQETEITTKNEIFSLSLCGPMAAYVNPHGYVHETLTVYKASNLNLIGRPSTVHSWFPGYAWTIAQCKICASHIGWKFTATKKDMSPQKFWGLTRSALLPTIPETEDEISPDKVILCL
T5 sequence (Q03526 whole entry): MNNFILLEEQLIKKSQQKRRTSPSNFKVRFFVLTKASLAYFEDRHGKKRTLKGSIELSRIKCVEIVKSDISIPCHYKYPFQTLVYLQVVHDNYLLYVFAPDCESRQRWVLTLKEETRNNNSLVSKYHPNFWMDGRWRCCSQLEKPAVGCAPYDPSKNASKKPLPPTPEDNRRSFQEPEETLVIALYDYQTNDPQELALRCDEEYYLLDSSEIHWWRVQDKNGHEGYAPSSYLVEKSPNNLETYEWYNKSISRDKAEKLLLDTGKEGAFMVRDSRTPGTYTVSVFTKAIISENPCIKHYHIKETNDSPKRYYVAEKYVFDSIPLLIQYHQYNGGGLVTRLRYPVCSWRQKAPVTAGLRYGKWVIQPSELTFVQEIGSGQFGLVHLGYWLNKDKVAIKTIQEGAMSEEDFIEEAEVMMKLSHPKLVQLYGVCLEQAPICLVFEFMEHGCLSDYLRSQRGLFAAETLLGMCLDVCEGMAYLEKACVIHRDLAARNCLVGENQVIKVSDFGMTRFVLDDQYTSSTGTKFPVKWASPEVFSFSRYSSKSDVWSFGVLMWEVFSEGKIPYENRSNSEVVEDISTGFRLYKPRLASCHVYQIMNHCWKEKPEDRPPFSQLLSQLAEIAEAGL

[35] = molecular target: T4, Protein cereblon/Tyrosine-protein kinase ITK/TSK (Mus musculus); test: PROTAC activity at CRBN/ITK in Balc/c mouse Primary splenic cell assessed as maximum degradation at 0.32 to 5000 nM by immunoblotting analysis relative to control; type: cell-based; conditions: dose 0.32-5000 nM

T1 sequence (P60568 whole entry): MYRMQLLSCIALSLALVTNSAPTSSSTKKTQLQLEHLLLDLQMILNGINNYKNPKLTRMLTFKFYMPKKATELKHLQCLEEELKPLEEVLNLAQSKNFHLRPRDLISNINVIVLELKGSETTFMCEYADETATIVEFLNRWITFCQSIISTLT

## COc1cc(C)c(Sc2cnc(NC(=O)c3ccc(CNC(C)C(C)(C)C)cc3)s2)cc1C(=O)N1CCN(C(C)=O)CC1 (stereo not given)
Interleukin-2 [1]
  EC50: 238 nM

## COc1cccc(-n2c(=O)c(C(=O)Nc3ccc(-c4nc(-c5ccnc(N6CC(OC)C6)c5)cnc4N)nc3)c(C)n2C)c1
[2]
  IC50: < 4 nM

## CC1(C)CCc2c(C(=O)Nc3cnn([C@@H](CCN4CCN(CCC5CCN(c6ccc7c(c6)C(=O)N(C6CCC(=O)NC6=O)C7=O)CC5)CC4)c4ccccc4)c3)n[nH]c2C1.O=C(O)C(F)(F)F (stereo not given in full)
[3]
  EC50: 3.6 nM
[4]
  Emax: 95%
Interleukin-2 [5]
  EC50: 35.2 nM
[6]
  AUC(0-t) at 24 h: 15100 ng·h/mL
[7]
  AUC(0-t) at 24 h: 25900 ng·h/mL
[8]
  AUC(0-inf): 15400 ng·h/mL
[9]
  AUC(0-inf): 27300 ng·h/mL
[10]
  half-life: 4.39 h
[11]
  half-life: 5.75 h
[12]
  Vd: 2.06 L/kg
[13]
  Vdss: 3.06 L/kg
[14]
  clearance: 5.4 mL/min/kg
[15]
  CL/F: 6.1 mL/min/kg
[16]
  Cmax: 4910 ng/mL
[17]
  Cmax: 3420 ng/mL
[18]
  MRT last at 24 h: 4.42 h
[19]
  MRT last at 24 h: 5.84 h
[20]
  bioavailability: 88.4%
[21]
  Activity: Non-Toxic
[22]
  Activity: Non-Toxic
[23]
  Activity: Non-Toxic
[24]
  Activity: Non-Toxic
[25]
  fold change (FC): 0.37
Jurkat [26]
  Activity: inactive
Jurkat [27]
  Activity: inactive
Jurkat [28]
  Activity: inactive
Jurkat [29]
  Activity: inactive
[30]
  Activity: Active
[31]
  Activity: Active
[32]
  Activity: 70%
[33]
  Activity: Dose-Dependent Effect
[34]
  DC50: 2.1 nM
[35]
  Emax: > 99%
